The source of these data is PMC9441068, “Novel eIF4A1 inhibitors with anti‐tumor activity in lymphoma” (Molecular Medicine, 2022).

What is called IC50 is the midpoint of a concentration-inhibition curve.

Assay type in all cases: biochemical
The target of experiment [1] is T1, human eIF4A1 (Homo sapiens, UniProt P60842). Nature of the experiment: malachite green phosphate release (RNA-dependent ATPase) assay.
The target in experiment [2] is T1, human eIF4A1. Nature of the experiment: malachite green phosphate release (RNA-dependent ATPase) assay; also Cy3/Cy5 RNA unwinding assay (IC50 […]).
Experiment [3] deals with T1, human eIF4A1. Described as above. The source holds these as a separate data set.

T1 sequence (P60842 2-406): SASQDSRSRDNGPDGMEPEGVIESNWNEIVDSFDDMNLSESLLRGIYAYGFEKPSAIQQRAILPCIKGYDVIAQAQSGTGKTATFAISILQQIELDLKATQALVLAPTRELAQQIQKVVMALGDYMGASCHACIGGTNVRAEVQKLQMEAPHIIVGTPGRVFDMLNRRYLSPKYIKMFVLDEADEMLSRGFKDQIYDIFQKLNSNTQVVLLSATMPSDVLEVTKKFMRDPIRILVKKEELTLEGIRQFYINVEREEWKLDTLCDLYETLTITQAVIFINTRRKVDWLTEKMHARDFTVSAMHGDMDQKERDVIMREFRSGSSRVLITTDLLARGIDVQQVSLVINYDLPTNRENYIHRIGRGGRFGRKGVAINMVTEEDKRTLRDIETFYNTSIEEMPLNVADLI

`CC(=NNC(=O)c1nnn(-c2nonc2N)c1CSc1nncn1C)c1cccc(O)c1` [RBF98] came in with an IC50 against human eIF4A1 [1] of 3000 nM. This counts as single-digit micromolar.
For `CC(=NNC(=O)c1nnn(-c2nonc2N)c1CSc1nncn1C)c1ccccc1O` [RBF197], at human eIF4A1 [2], 0.0552 nM corresponded to half-maximal inhibition (IC50).
For `CC(=NNC(=O)c1nnn(-c2nonc2N)c1CSc1nncn1C)c1ccccc1O` [RBF203], half-maximal inhibition against human eIF4A1 [1] (IC50) was put at 0.209 nM.
At human eIF4A1 [3], `Cn1cnnc1SCc1c(C(=O)NN=Cc2ccccc2O)nnn1-c1nonc1N` [RBF208] had a half-maximal inhibitory concentration (IC50) of 0.0741 nM.
